Test results published in article PMC10746280, “Bacterial efflux pump modulators prevent bacterial growth in macrophages and under broth conditions that mimic the host environment” (mBio, 2023).

Key:
[1] = test system: S. Typhimurium SL1344 (sifB::gfp) in RAW 264.7 macrophages; test: SAFIRE macrophage assay: intracellular bacterial load (GFP signal within macrophages); assay type: cell-based, Salmonella enterica serotype Typhimurium
Outline: (§1)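 Compound or DMSO added 2 h after gentamicin-protected infection (MOI ~30, sifB::gfp SL1344) of RAW 264.7 cells and left to 18 h. Fixed cells imaged; intracellular GFP area per macrophage gives bacterial load, while retained adherent MitoTracker Red-stained macrophages define host toxicity.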

RAW 264.7 macrophages = test: SAFIRE macrophage assay: host toxicity (adherent macrophage count, morphology); assay type: cell-based
Outline: as §1

[2] = 5 uM, 'Toxic' given instead of a score
[3] = 25 uM, 'Toxic' given instead of a score
[4] = 5 uM compound, n=1, DMSO solvent control = 98, rifampicin 2 μg/mL = 65
[5] = 25 uM compound, n=1, DMSO solvent control = 98, rifampicin 2 μg/mL = 65
[6] = 5 uM compound, n=1, DMSO solvent control = 100
[7] = 25 uM compound, n=1, DMSO solvent control = 100

| Structure (SMILES) | 5 uM Avg Antibacterial Score [1, 2] | 25 uM Avg Antibacterial Score [1, 3] | 5 uM Avg Cell # Score (RAW 264.7 macrophages; 5 uM) | 25 uM Avg Cell # Score (RAW 264.7 macrophages; 25 uM) | 5 uM Avg Antibacterial Score [1, 4] | 25 uM Avg Antibacterial Score [1, 5] | IC50 ([1]; Salmonella enterica, TYPHIMURIUM, RAW264.7, read-out: SAFIRE IC50) [nM] | 5 uM Avg Cell # Score (RAW 264.7 macrophages; [6]) | 25 uM Avg Cell # Score (RAW 264.7 macrophages; [7]) |
| --- | --- | --- | --- | --- | --- | --- | --- | --- | --- |
| N#Cc1ccc(OCC(O)CN2CCC(N)C2)cc1 (stereo not drawn) [CU154] | 112 | 111 | 99 | 123 |  |  |  |  |  |
| N[C@@H]1CCN(C[C@@H](O)COc2ccc(Cl)c(Cl)c2)C1 [CU239] |  |  |  |  | 25 | 8 | 13.5 | 129 | 104 |
| CNC1CCN(CC(O)COc2ccc(F)c(F)c2)C1 (stereo not drawn) [CU176] | 83 | 58 | 102 | 111 |  |  |  |  |  |
| OC(COc1ccc(Cl)c(Cl)c1)CN1CCCNCC1 (stereo not drawn) [CU145] | 69 | 39 | 94 | 120 |  |  |  |  |  |
| OC(COc1ccccc1)CN1CCC(Nc2nccs2)CC1 (stereo not drawn) [CU052] | 106 | 93 | 110 | 165 |  |  |  |  |  |
| OC(COc1ccc(Cl)cc1Cl)CN1CCC(NC2CC2)C1 (stereo not drawn) [CU121] | 73 | 11 | 89 | 89 |  |  |  |  |  |
| CN(CC(O)COc1ccc(Cl)c(Cl)c1)C1CCNC1 (stereo not drawn) [CU143] | 84 | 55 | 113 | 117 |  |  |  |  |  |
| OC(CNCc1csc(Cl)c1)COc1ccc(Cl)c(Cl)c1 (stereo not drawn) [CU155] | 107 | Toxic | 95 | 78 |  |  |  |  |  |
| CCOC(=O)c1cccc(OCC(O)CN2CCC(Nc3nccc(C(F)(F)F)n3)CC2)c1 (stereo not drawn) [CU104] | 13 | Toxic | 98 | 61 |  |  |  |  |  |
| OC(COc1ccc(Cl)c(Cl)c1)CN1CCC2(CCO2)C1 (stereo not drawn) [CU228] | 98 | 58 | 111 | 102 |  |  |  |  |  |
| NC1CCN(CC(O)COc2ccc(F)c(F)c2)CC1 (stereo not drawn) [CU171] | 61 | 45 | 108 | 96 |  |  |  |  |  |
| OC(CNCc1cccc2ccccc12)COc1ccc(Cl)c(Cl)c1 (stereo not drawn) [CU133] | 60 | Toxic | 84 | 92 |  |  |  |  |  |
| NC1CCN(CC(O)COc2ccc(Cl)cc2Cl)C1 (stereo not drawn) [CU166] | 44 | 19 | 105 | 108 |  |  |  |  |  |
| O[C@@H](COc1ccc(Cl)c(Cl)c1)CN1CCCC1 [CU254] |  |  |  |  | 89 | 51 |  | 119 | 125 |
| CN1CCC(N(C)CC(O)COc2ccc(Cl)c(Cl)c2)C1 (stereo not drawn) [CU175] | 65 | 22 | 108 | 95 |  |  |  |  |  |
| COCCN1CCN(CC(O)COc2ccc(Cl)c(Cl)c2)CC1 (stereo not drawn) [CU211] | 100 | 50 | 120 | 115 |  |  |  |  |  |
| CC(C)N(CCNc1nccc(C(F)(F)F)n1)CC(O)COc1ccc(Cl)c(Cl)c1 (stereo not drawn) [CU072] | Toxic | Toxic | 62 | 94 |  |  |  |  |  |
